From PMC8745710, “Biological Evaluation and Molecular Docking Studies of Novel 1,3,4-Oxadiazole Derivatives of 4,6-Dimethyl-2-sulfanylpyridine-3-carboxamide” (International Journal of Molecular Sciences, 2022)
Where two headings read alike, the source gives them in different places.

Legend:
[1] = system: V79 cell line; experiment: Intracellular ROS level (DCFH-DA), V79 cells; format: cell-based, Chinese hamster; conditions: Cricetulus griseus, 4 h, V79, compound 100 μM
Description: (§1) Two cell lines were chosen for investigations: V79 (Chinese hamster lung fibroblasts) and LoVo. V79 normal cells are widely used as the cell line tested in the studies of the oxidative stress. These cells are a living system model to explain the mechanism of ROS effects caused by varied compounds [73].
(§2) First, the tested compounds (in concentration of 100 μM) were added to the cell cultures and cells were incubated for 4 h. Then cells were washed and incubated with DCFH-DA (non-fluorescent probe) in dark at 37 °C for 2 h at CO2 [79]. Non-fluorescent, non-polar DCFH-DA (2′7′-dichlorodihydrofluorescein diacetate) at concentration of 25 μM was used as a marker of oxidative stress to determine the intracellular ROS levels. […] In this time, DCFH-DA which penetrated into the cells, was hydrolyzed by esterases to polar, non-fluorescent DCFH (2′7′-dichlorodihydrofluorescein) and then oxidized in the presence of ROS (reactive oxygen species) to fluorescent DCF (2′7′-dichlorofluorescein). DCF was measured using Varioscan LUX microplate reader (Thermo Fisher Scientific, Waltham, MA, USA) at λex = 485 nm and λem = 535 nm. Then results were presented as E/E0 where E is test sample value and E0—control value.
[…] E is the culture with the tested compound and E0 is the negative control without the compound. The routine statistical methods: two-way analysis of variance ANOVA as well as Tukey’s post-hoc test were used. It allowed us to determine the statistical significance of results, where p < 0.05 was set as significant. The statistical indicators were estimated using Statistica 13.3 software.

[2] = system: LoVo cell line; experiment: Intracellular ROS level (DCFH-DA), LoVo cells; format: cell-based; conditions: Homo sapiens, 4 h, compound 100 μM
Description: as §1
as §2, with “nm.” for “nm. Then results were presented as E/E0 where E is test sample value and E0—control value.”
E is the culture with the tested compound and E0 is the negative control without the compound. The routine statistical methods: two-way analysis of variance ANOVA as well as Tukey’s post-hoc test were used. It allowed us to determine the statistical significance of results, where p < 0.05 was set as significant. The statistical indicators were estimated using Statistica 13.3 software.

[3] = system: NHDF (normal human dermal fibroblasts); experiment: MTT assay, NHDF; format: cell-based; conditions: 48 h incubation, read-out: IC50 [µM] ± SD NHDF
Text: (§3) The MTT (3-[4,5-dimethylthiazol-2-yl]-2,5-diphenyl tetrazolium bromide) assay was used to determine the cytotoxicity of tested compounds towards different cell lines: normal human dermal fibroblasts (NHDF), kidney epithelial cells (VERO), fibroblasts from Chinese hamster lung (V79) and four human cancer cells: A549 (pulmonary basal cell alveolar adenocarcinoma), MCF-7 (breast adenocarcinoma), LoVo (colon adenocarcinoma), and its drug resistant subline LoVo/Dx. The cell lines used in this study express COX-1 and COX-2. The LoVo line expressed COX-1, the LoVo/Dx subline express both COX-1 and COX-2 [61].
(§4) Each cell line was grown in the culture media recommended by supplier. Before the test they were detached with trypsin/EDTA solution, then to neutralize the effect of Trypsin/EDTA solution, FBS containing medium was used. After centrifugation the cells were stained with 0.4% solution of trypan blue, counted and inspected for viability using microscope. In the end, cells were inserted into 96-well culture plates and incubated in CO2 incubator (37 °C, 24 h). The number of cells was 2 × 10^3 cells per well. The tested compounds with different concentrations (5, 10, 20, 50, 100 µM) were dissolved in DMSO and then added to the cells (the final DMSO concentration was 0.1%). The cultures were incubated for another 48 h. After that time the cells were collected to be used in tests.
(§5) MTT assay was used to find out how tested compounds influence the metabolic activity of investigated cell lines. The cells were incubated with tested compounds. After removing of supernatant, 1 mg/mL of MTT solution in MEM was added to the plate (to each well) and then the plates were incubated at 37 °C for 2 h. The medium was removed again, and formazan crystals were dissolved in isopropanol. A Varioscan LUX microplate reader (Thermo Fisher Scientific, Waltham, MA, USA) was used to measure absorbance at 570 nm.

[4] = system: VERO (kidney epithelial cells); experiment: MTT assay, VERO; format: cell-based; conditions: 48 h incubation
Text: as §3, §4, §5

[5] = system: V79 (fibroblasts from Chinese hamster lung); experiment: MTT assay, V79; format: cell-based; conditions: Cricetulus griseus, Fibroblast, 48 h incubation, read-out: IC50 [µM] ± SD V79
Text: as §3, §4, §5

[6] = system: A549 (pulmonary basal cell alveolar adenocarcinoma); experiment: MTT assay, A549; format: cell-based; conditions: Homo sapiens, 48 h incubation, read-out: IC50 [µM] ± SD A549
Text: as §3, §4, §5

[7] = system: LoVo (colon adenocarcinoma); experiment: MTT assay, LoVo; format: cell-based; conditions: Homo sapiens, 48 h incubation, read-out: IC50 [µM] ± SD LoVo
Text: as §3, §4, §5

[8] = system: LoVo/Dx (drug resistant subline of LoVo); experiment: MTT assay, LoVo/Dx; format: cell-based; conditions: Homo sapiens, 48 h incubation, read-out: IC50 [µM] ± SD LoVo/Dx
Text: as §3
as §4, with “In the end, cells were inserted into 96-well culture plates and incubated in CO2 incubator (37 °C, 24 h).” left out
MTT assay was used to find out how tested compounds influence the metabolic activity of investigated cell lines. The cells were incubated with tested compounds. […] The medium was removed again, and formazan crystals were dissolved in isopropanol.

[9] = with H2O2 (100 μM, 30 min), n = 5, read-out: ROS scavenging activity, Mean E/E0 ± SD, with H2O2
[10] = without H2O2, n = 5, read-out: ROS scavenging activity, Mean E/E0 ± SD, without H2O2

| SMILES | activity at 100 µM [1, 9] | activity at 100 µM [1, 10] | activity at 100 µM [2, 9] | activity at 100 µM [2, 10] | IC50 [3] | IC50 [µM] ± SD VERO [4] | IC50 [5] | IC50 [6] | IC50 [7] | IC50 [8] |
| --- | --- | --- | --- | --- | --- | --- | --- | --- | --- | --- |
| Cc1c(C)c2c(c(C)c1O)CCC(C)(C(=O)O)O2 (stereo not shown) [Trolox, trolox, reference compound] | 15 ± 8% | 71 ± 5% | 29 ± 15% | 85 ± 13% | – | – | – | – | – | – |
| O=C1O[C@H]([C@@H](O)CO)C(O)=C1O [Ascorbic acid, ascorbic acid, reference compound] | 22 ± 12% | 83 ± 13% | 32 ± 9% | 89 ± 11% | – | – | – | – | – | – |
| CN1C(C(=O)Nc2ccccn2)=C(O)c2ccccc2S1(=O)=O [Piroxicam, piroxicam, reference compound] | 67 ± 17% | 98 ± 17% | 81 ± 19% | 72 ± 19% | 162 ± 22.9 µM | no toxicity | 213 ± 23.2 µM | 110 ± 28.2 µM | 122 ± 10.2 µM | 126 ± 11.2 µM |
| Cc1cnc(NC(=O)C2=C(O)c3ccccc3S(=O)(=O)N2C)s1 [Meloxicam, meloxicam, reference compound] | 85 ± 18% | 115 ± 19% | 89 ± 16% | – | 196 ± 35.2 µM | no toxicity | 201 ± 17.8 µM | – | – | 142 ± 9.46 µM |
